Measurements: patent publication US5693640A, “Pyridazino-indole derivatives” (Merck, Sharp & Dohme, Ltd., priority 1994, dated 1997)

Columns and labels:
NMDA = test: Cortical slice studies: responses to NMDA in rat cortical slice; details: calculated from righthand shift in the NMDA concentration-response curve, read-out: apparent equilibrium constant (Kb) in response to NMDA
Description: (§1) The compounds useful in this invention potently and selectively block responses to NMDA and/or AMPA in a brain slice from rat cortex, and inhibit the binding of agonists and antagonists to the strychnine-insensitive site present on the NMDA receptor and/or AMPA binding to rat forebrain membranes.
The effects of compounds of use in the invention on responses to NMDA and AMPA can be assessed using the rat cortical slice as described by Wong et al., Proc. Natl. Acad. Sci. USA, 1986, 83, 7104. The apparent equilibrium constant (Kb) is calculated from the righthand shift in the NMDA or AMPA concentration-response curves produced by the compound under test.

[1] = target: T1, strychnine-insensitive site present on the NMDA receptor (Rattus norvegicus, UniProt P35439); test: Displacement of 3H-L-689,560 binding, rat forebrain membranes; details: read-out: concentration required to displace 50% of the specific binding (IC50)
T1 construct: strychnine-insensitive site present on the NMDA receptor of rat forebrain membranes; from tissue; host or cells: rat forebrain membranes
Description: as §1
The ability of test compounds to displace ^3 H-L-689,560 (trans-2-carboxy-5,7-dichloro-4-phenylaminocarbonylamino-1,2,3,4-tetrahydroquinoline) binding to the strychnine-insensitive site present on the NMDA receptor of rat forebrain membranes can be determined by the method of Grimwood et al., Proceedings of the British Pharmacological Society, July 1991, Abstract C78.

IC50 [1]: < 50 µM
SMILES: O=c1[nH]n(-c2ccccc2)c(=O)c2c1[nH]c1ccccc12 [Example 1, 2-Phenylpyridazino[4,5-b]indole-1,4-dione]
Kb (NMDA): < 150 µM
